Measured values from ChEMBL document CHEMBL5352436, “Triterpenoid pyrazines and pyridines - Synthesis, cytotoxicity, mechanism of action, preparation of prodrugs” (Eur J Med Chem, 2022).
Calls of active or inactive are those of the source. The rule behind the calls is not given here.

Key:
[1] = Chemical stability in PBS buffer at pH 7.4 assessed as compound remaining measured at 60 mins by RF-MS analysis; type: physicochemical; conditions: read-out: Stability
[2] = tested on: CCRF-CEM; assay: Induction of apoptosis in human CCRF-CEM cells assessed as early apoptotic cells at 5 times IC50 incubated for 24 hrs by Annexin V and propidium iodide staining based flow cytometry analysis […]; type: functional
[3] = Stability in human liver microsomes assessed as compound remaining at 2 uM measured at 15 mins in presence of NADPH by RF-MS analysis; type: ADME, Microsome; conditions: read-out: Stability
[4] = Stability in human liver microsomes assessed as compound remaining at 2 uM measured at 30 mins in presence of NADPH by RF-MS analysis; type: ADME, Microsome; conditions: read-out: Stability
[5] = tested on: CCRF-CEM; assay: Induction of apoptosis in human CCRF-CEM cells assessed as early apoptotic cells at 1 time IC50 incubated for 24 hrs by Annexin V and propidium iodide staining based flow cytometry analysis (reference value: […]); type: functional
[6] = tested on: K562; assay: Cytotoxicity against human K562 cells assessed as reduction in cell viability incubated for 72 hrs by MTS assay; type: functional, cell-based; conditions: K562, 72 h
[7] = Chemical stability in PBS buffer at pH 7.4 assessed as compound remaining measured at 120 mins by RF-MS analysis; type: physicochemical; conditions: read-out: Stability
[8] = Stability in human liver microsomes assessed as compound remaining at 2 uM measured at 60 mins in presence of NADPH by RF-MS analysis; type: ADME, Microsome; conditions: read-out: Stability
[9] = tested on: CCRF-CEM; assay: Induction of apoptosis in human CCRF-CEM cells assessed as late apoptotic cells at 5 times IC50 incubated for 24 hrs by Annexin V and propidium iodide staining based flow cytometry analysis […]; type: functional
[10] = Apparent permeability of the compound in MDCK-MDR1 cells at 10 uM incubated for 1 hr by RF-MS analysis; type: ADME, cell-based, Canis lupus familiaris; conditions: dog
[11] = tested on: CCRF-CEM; assay: Induction of apoptosis in human CCRF-CEM cells assessed as necrotic cells at 5 times IC50 incubated for 24 hrs by Annexin V and propidium iodide staining based flow cytometry analysis […]; type: functional
[12] = Stability in human plasma assessed as compound remaining at 2 uM measured at 15 mins by RF-MS analysis; type: ADME, cell-free; conditions: read-out: Stability
[13] = tested on: HCT-116; assay: Antitumor activity in human HCT-116 cells cultured as spheroids assessed as inhibition of cell growth at 10 uM incubated for 3 days; type: functional; parameters: scale not given: the % may be the effect or the level left; conditions: time 3 day
[14] = Stability in human plasma assessed as compound remaining at 2 uM measured at 120 mins by RF-MS analysis; type: ADME, cell-free; conditions: read-out: Stability
[15] = Chemical stability in PBS buffer at pH 7.4 assessed as compound remaining measured at 30 mins by RF-MS analysis; type: physicochemical; conditions: read-out: Stability
[16] = Plasma protein binding in human at 10 uM by rapid equilibrium dialysis based RF-MS analysis; type: ADME, cell-free; conditions: read-out: PB (converted)
[17] = Cytotoxicity against human HCT116-p53-null cells assessed as reduction in cell viability incubated for 72 hrs by MTS assay; type: functional, cell-based
[18] = tested on: CCRF-CEM; assay: Induction of apoptosis in human CCRF-CEM cells assessed as decrease in c-Myc expression at 1 to 5 times IC50 incubated for 24 hrs by Western blot analysis; type: functional, cell-based
[19] = tested on: CCRF-CEM; assay: Induction of apoptosis in human CCRF-CEM cells assessed as necrotic cells at 1 time IC50 incubated for 24 hrs by Annexin V and propidium iodide staining based flow cytometry analysis (reference value: 0.0%); type: functional
[20] = Apparent permeability of the compound in MDCK-MDR1 cells assessed as drug recovery at 10 uM incubated for 1 hr by RF-MS analysis; type: ADME, cell-based, Canis lupus familiaris; conditions: dog, read-out: Drug recovery
[21] = Cytotoxicity against human MRC5 cells assessed as reduction in cell viability incubated for 72 hrs by MTS assay; type: toxicity, cell-based
[22] = tested on: CCRF-CEM; assay: Induction of apoptosis in human CCRF-CEM cells assessed as accumulation of Bax protein expression at 1 to 5 times IC50 incubated for 24 hrs by Western blot analysis; type: functional, cell-based
[23] = Stability in human plasma assessed as compound remaining at 2 uM measured at 60 mins by RF-MS analysis; type: ADME, cell-free; conditions: read-out: Stability
[24] = tested on: CCRF-CEM; assay: Induction of apoptosis in human CCRF-CEM cells assessed as accumulation of Bid protein expression at 1 to 5 times IC50 incubated for 24 hrs by Western blot analysis; type: functional, cell-based
[25] = Stability in human plasma assessed as compound remaining at 2 uM measured at 30 mins by RF-MS analysis; type: ADME, cell-free; conditions: read-out: Stability
[26] = tested on: CCRF-CEM; assay: Induction of apoptosis in human CCRF-CEM cells assessed as late apoptotic cells at 1 time IC50 incubated for 24 hrs by Annexin V and propidium iodide staining based flow cytometry analysis (reference value: […]); type: functional
[27] = Chemical stability in PBS buffer at pH 7.4 assessed as compound remaining measured at 15 mins by RF-MS analysis; type: physicochemical; conditions: read-out: Stability
[28] = Cytotoxicity against human K562-Tax cells assessed as reduction in cell viability incubated for 72 hrs by MTS assay; type: functional, cell-based
[29] = tested on: CCRF-CEM; assay: Cytotoxicity against human CCRF-CEM cells assessed as reduction in cell viability incubated for 72 hrs by MTS assay; type: functional, cell-based
[30] = tested on: A549; assay: Cytotoxicity against human A549 cells assessed as reduction in cell viability incubated for 72 hrs by MTS assay; type: functional, cell-based; conditions: A549, 72 h
[31] = tested on: CCRF-CEM; assay: Induction of apoptosis in human CCRF-CEM cells assessed as increase in Noxa expression at 1 to 5 times IC50 incubated for 24 hrs by Western blot analysis; type: functional, cell-based
[32] = tested on: HeLa; assay: Antitumor activity in human HeLa cells cultured as spheroids assessed as inhibition of spheroid opening at 1 uM incubated for 3 days; type: functional, cell-based; conditions: time 3.0 day
[33] = tested on: CEM-DNR; assay: Cytotoxicity against human CEM-DNR cells assessed as reduction in cell viability incubated for 72 hrs by MTS assay; type: functional, cell-based
[34] = tested on: HCT-116; assay: Cytotoxicity against human HCT-116 cells assessed as reduction in cell viability incubated for 72 hrs by MTS assay; type: functional, cell-based; conditions: HCT-116, 72 h
[35] = tested on: CCRF-CEM; assay: Induction of apoptosis in human CCRF-CEM cells assessed as PARP cleavage at 1 to 5 times IC50 incubated for 24 hrs by Western blot analysis; type: functional, cell-based
[36] = Cytotoxicity against human BJ cells assessed as reduction in cell viability incubated for 72 hrs by MTS assay; type: toxicity, cell-based
[37] = tested on: U2OS; assay: Cytotoxicity against human U2OS cells assessed as reduction in cell viability incubated for 72 hrs by MTS assay; type: functional, cell-based
[38] = tested on: CCRF-CEM; assay: Induction of apoptosis in human CCRF-CEM cells assessed as viable cells at 1 time IC50 incubated for 24 hrs by Annexin V and propidium iodide staining based flow cytometry analysis […]; type: functional
[39] = tested on: CCRF-CEM; assay: Induction of apoptosis in human CCRF-CEM cells assessed as viable cells at 5 times IC50 incubated for 24 hrs by Annexin V and propidium iodide staining based flow cytometry analysis […]; type: functional
[40] = Efflux ratio of apparent permeability across basolateral to apical side over apical to basolateral side in MDCK-MDR1 cells; type: ADME, cell-based, Canis lupus familiaris; conditions: dog
[41] = tested on: CCRF-CEM; assay: Induction of mitochondrial changes in human CCRF-CEM cells at 10 uM incubated for 4 hrs by electron microscopic analysis; type: functional, cell-based
[42] = tested on: CCRF-CEM; assay: Induction of mitochondrial damage in human CCRF-CEM cells at >= 10 uM incubated for 4 hrs by light microscopic analysis; type: functional, cell-based

SMILES	remaining at 1 h [1]	Activity [2]	remaining at 0.25 h, 2 µM [3]	remaining at 0.5 h, 2 µM [4]	Activity [5]	IC50 [6]	remaining at 2 h [7]	remaining at 1 h, 2 µM [8]	Activity [9]	Papp at 1 h, 10 µM [10]	Activity [11]	remaining at 0.25 h, 2 µM [12]	Activity [13]	remaining at 2 h, 2 µM [14]	remaining at 0.5 h [15]	fraction unbound at 10 µM [16]	IC50 [17]	Activity [19]	recovery at 1 h, 10 µM [20]	Activity [32]	also measured
C=C(C=O)[C@@H]1CC[C@]2(C(=O)OCc3cn([C@H]4O[C@H](COC(C)=O)[C@@H](OC(C)=O)[C@H](OC(C)=O)[C@H]4OC(C)=O)nn3)CC[C@]3(C)[C@H](CC[C@@H]4[C@@]5(C)Cc6nccnc6C(C)(C)[C@@H]5CC[C@]43C)[C@@H]12 (stereo in doubt)	87.8%	56%	96.8%	95.7%	53.8%	1200 nM	85.2%	58.9%	37.7%	0.12 ×10⁻⁶ cm/s	1%	104%	100%	88.5%	91.1%	0.0017	1700 nM	4.1%	77.6%	Active	Activity [18]: Active; IC50 at 72 h [21]: 1800 nM; Activity [22]: Active; remaining at 1 h, 2 µM [23]: 88.7%; Activity [24]: Active; remaining at 0.5 h, 2 µM [25]: 97.2%; Activity [26]: 23.9%; remaining at 0.25 h [27]: 99.9%; IC50 [28]: 2700 nM; IC50 [29]: 750 nM; IC50 [30]: 1800 nM; Activity [31]: Active; IC50 [33]: 1500 nM; IC50 [34]: 1500 nM; Activity [35]: Active; IC50 at 72 h [36]: 2300 nM; IC50 [37]: 1600 nM; Activity [38]: 18.1%; Activity [39]: 5.3%; efflux ratio [40]: 4.49
C=C(C)[C@@H]1CC[C@]2(C(=O)O)CC[C@]3(C)[C@H](CC[C@@H]4[C@@]5(C)Cc6nccnc6C(C)(C)[C@@H]5CC[C@]43C)[C@@H]12	–	0.8%	–	–	1.7%	–	–	–	2.6%	–	4.5%	–	100%	–	–	–	–	3.7%	–	Active	Activity [41]: Active; Activity [42]: inactive; Activity [26]: 2.2%; Activity [38]: 92.3%; Activity [39]: 92%
C=C(C=O)[C@@H]1CC[C@]2(C(=O)OCc3cn([C@H]4O[C@H](COC(C)=O)[C@@H](OC(C)=O)[C@H](OC(C)=O)[C@H]4OC(C)=O)nn3)CC[C@]3(C)[C@H](CC[C@@H]4[C@@]5(C)CC[C@H](O)C(C)(C)[C@@H]5CC[C@]43C)[C@@H]12	89.2%	–	95.6%	82.7%	–	1400 nM	83.8%	66.6%	–	0.32 ×10⁻⁶ cm/s	–	93.9%	100%	82.3%	92.5%	0.0015	1700 nM	–	103%	Active	IC50 at 72 h [21]: 1700 nM; remaining at 1 h, 2 µM [23]: 87%; remaining at 0.5 h, 2 µM [25]: 88.7%; remaining at 0.25 h [27]: 97.1%; IC50 [28]: 1600 nM; IC50 [29]: 600 nM; IC50 [30]: 1800 nM; IC50 [33]: 1600 nM; IC50 [34]: 1600 nM; IC50 at 72 h [36]: 1800 nM; IC50 [37]: 1700 nM; efflux ratio [40]: 3.77
